Results reported in US20240382400A1 (The Procter & Gamble Company, priority 2023, published 2024).
Like-named read-outs stand apart in the source and are kept apart here.

What was measured:
[1] = acidic pKa; cited from earlier work
[2] = cited from earlier work
[3] = pH 7.0 and 20° C.; cited from earlier work
PGE2 = PGE2 anti-inflammation assay in-vitro; assay type: cell-based; details: compared to niacinamide

## O=C([O-])C=Cc1ccccc1.[Na+] [Sodium Cinnamate]
[1]
  pKa: 4.32

## O=C(O)C=Cc1ccccc1 [cinnamic acid]
[1]
  pKa: 4.32

## O=C(O)/C=C/c1ccc(O)cc1 [p-coumaric acid]
[2]; pH 3
  conjugate base form: approximately 13.4%
[2]; pH 7
  conjugate base form: approximately 99.6%
[3]
  solubility in water: approximately 345 mg/mL

## Methyl niacinamide
PGE2
  efficacy in PGE2 anti-inflammation assay: equivalent and/or improved efficacy to niacinamide
